biological target: T1, human beta-3-adrenergic receptor (Homo sapiens, UniProt P13945); assay: cAMP production (SPA) in CHO cells stably expressing human beta-3-adrenergic receptor, agonist activity; format: cell-based; conditions: cAMP production in CHO cells expressing human beta-3-adrenergic receptor; compounds binned (≦1 μM or >1 μM); read-out: Beta-3 Agonistic Activity, EC50 values
T1 construct: Chinese hamster ovary (CHO) cells that stably express full-length human beta-3-adrenergic receptor; expressed in transfected cells
T1 sequence (P13945 whole entry): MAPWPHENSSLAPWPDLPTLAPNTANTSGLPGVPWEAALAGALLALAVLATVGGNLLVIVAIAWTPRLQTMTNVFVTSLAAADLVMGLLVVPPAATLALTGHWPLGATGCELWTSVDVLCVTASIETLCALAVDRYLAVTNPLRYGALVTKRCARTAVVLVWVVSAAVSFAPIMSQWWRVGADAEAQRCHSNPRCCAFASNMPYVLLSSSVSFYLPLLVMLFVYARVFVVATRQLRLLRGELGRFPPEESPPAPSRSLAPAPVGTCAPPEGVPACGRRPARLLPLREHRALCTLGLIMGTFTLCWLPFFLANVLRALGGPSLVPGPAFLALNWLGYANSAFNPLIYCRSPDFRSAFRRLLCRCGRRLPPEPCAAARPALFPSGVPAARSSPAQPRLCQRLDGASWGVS
Procedure: The cell line is grown in 90% F12 nutrient mixture (HAM), 10% fetal bovine serum, 100 units/ml penicillin G sodium, […] streptomycin sulfate, and 2 mM L-glutamine at 37° C. in 95% air and 5% CO2. The transfected cell line is maintained with G418 (800ug/ml).
To test agonist activity, cells are exposed to test compound and then assayed for cAMP production. […] Test compounds are assayed from 10 μM to 3 nM with 3-fold serial dilutions. The control agonist, isoproterenol (10 mM stock in 1.1 mM ascorbate), is assayed by 3-fold dilution beginning at 1 μM. Following a 30-minute incubation with the test compounds, the buffer/compound mixture is removed. […] The cAMP values are then plotted to ascertain the EC50 of each compound tested.

Row | Structure (SMILES) | EC50 [µM]
1 | COC(=O)c1nc(-c2ccc3c(c2)CC[C@H](CNC[C@H](O)COc2ccccc2)O3)sc1C(C)C [Example 138] | > 1
2 | O=C(O)c1csc(-c2ccc3c(c2)CC[C@H](CNC[C@H](O)COc2ccccc2)O3)c1 [Example 186] | ≤ 1
3 | O=C(O)c1ccc(-c2ccc3c(c2)CC[C@H](CNC[C@H](O)COc2ccccc2)O3)cc1N1CCCCC1 [Example 202] | ≤ 1
4 | O=C(O)c1ccc(-c2ccc3c(c2)CC[C@H](CNC[C@H](O)COc2ccccc2F)O3)cc1 [Example 253] | ≤ 1
5 | Nc1cc(-c2ccc3c(c2)CC[C@H](CNC[C@H](O)COc2ccccc2)O3)ccc1C(=O)O [Example 198] | ≤ 1
6 | O=C(O)c1ccc(-c2ccc3c(c2)CC[C@H](CNC[C@H](O)COc2ccccc2)O3)cc1-c1ccc(Cl)cc1 [Example 216] | ≤ 1
7 | O[C@@H](CNC[C@H]1CCc2cc(I)ccc2O1)COc1ccccc1 [Example 80, (2S)-1-({[(2R)-6-iodo-3,4-dihydro-2H-chromen-2-yl]methyl}amino)-3-phenoxy-2-propanol] | ≤ 1
8 | O=C(O)c1ccc(-c2ccc3c(c2)CC[C@H](CNC[C@H](O)COc2ccccc2)O3)cc1NC1CCC1 [Example 201] | ≤ 1
9 | O=C(O)CCc1ccc2c(c1)CC[C@H](CNC[C@H](O)COc1ccccc1Cl)O2 [Example 264, 3-[(2R)-2-({[(2S)-3-(2-chlorophenoxy)-2-hydroxypropyl]amino}methyl)-3,4-dihydro-2H-chromen-6-yl]propanoic acid] | ≤ 1
10 | O=C(O)c1ccc(-c2ccc3c(c2)CC[C@H](CNC[C@H](O)CSc2cccc(C(F)(F)F)c2)O3)cc1 [Example 180] | > 1
11 | O=C(O)c1ccc(-c2ccc3c(c2)CC[C@H](CNC[C@H](O)COc2ccc(O)cc2)O3)cc1 [Example 163] | ≤ 1
12 | COCCOc1cc(-c2ccc3c(c2)CC[C@H](CNC[C@H](O)COc2ccccc2)O3)ccc1C(=O)O [Example 210] | ≤ 1
13 | COc1cccc(SC[C@@H](O)CNC[C@H]2CCc3cc(-c4ccc(C(=O)O)cc4)ccc3O2)c1 [Example 178] | > 1
14 | CCOC(=O)c1nc(-c2ccc3c(c2)CC[C@H](CNC[C@H](O)COc2ccccc2)O3)oc1-c1ccccc1 [Example 134] | > 1
15 | O=C(O)CCc1ccc2c(c1)CC[C@H](CNC[C@H](O)COc1ccc(Cl)cc1)O2 [Example 267] | > 1
16 | CC(C)c1cccc(C(C)C)c1OC[C@@H](O)CNC[C@H]1CCc2cc(-c3ccc(C(=O)O)cc3)ccc2O1 [Example 140, 4-[(2R)-2-({[(2S)-3-(2,6-diisopropylphenoxy)-2-hydroxypropyl]amino}methyl)-3,4-dihydro-2H-chromen-6-yl]benzoic acid] | > 1
17 | O=C(O)c1ccc(-c2ccc3c(c2)CC[C@H](CNCC(O)COc2ccc(F)cc2)O3)cc1 (some centres unmarked) [Example 232] | ≤ 1

Row | Structure (SMILES) | EC50 [µM]
18 | O=C(O)c1ccc(-c2ccc3c(c2)CCC(CNC[C@H](O)COc2ccccc2)O3)cc1-c1ccccc1 (stereo in doubt) [Example 215, 5-[(2S)-2-({[(2S)-2-hydroxy-3-phenoxypropyl]amino}methyl)-3,4-dihydro-2H-chromen-6-yl]-1,1′-biphenyl-2-carboxylic acid] | ≤ 1
19 | Cc1c(-c2ccc3c(c2)CC[C@H](CNC[C@H](O)COc2ccccc2)O3)c(C(=O)O)nn1C [Example 184] | ≤ 1
20 | O=C(O)c1ccc(-c2ccc3c(c2)CCC(CNC[C@H](O)COc2ccccc2)O3)cc1O (stereo in doubt) [Example 213, 2-hydroxy-4-[(2S)-2-({[(2S)-2-hydroxy-3-phenoxypropyl]amino}methyl)-3,4-dihydro-2H-chromen-6-yl]benzoic acid] | ≤ 1
21 | O=C(O)c1ccc(-c2ccc3c(c2)CC[C@H](CNC[C@H](O)COc2ccccc2)O3)cc1 [Example 142, 4-[(2R)-2-({[(2S)-2-Hydroxy-3-phenoxyropyl]amino}methyl)-3,4-dihydro-2H-chromen-6-yl]benzoic acid] | ≤ 1
22 | COC(=O)c1csc(-c2ccc3c(c2)CC[C@H](CNC[C@H](O)COc2ccccc2)O3)c1 [Example 132] | ≤ 1
23 | COC(=O)c1ccc(-c2ccc3c(c2)CC[C@H](CNC[C@H](O)COc2cccc4[nH]c5ccccc5c24)O3)cc1 [Example 102] | > 1
24 | CC(C)c1ccccc1SC[C@@H](O)CNC[C@H]1CCc2cc(-c3ccc(C(=O)O)cc3)ccc2O1 [Example 171] | ≤ 1
25 | O=C(O)c1sc(-c2ccc3c(c2)CC[C@H](CNC[C@H](O)COc2ccccc2)O3)nc1-c1ccccc1 [Example 189] | ≤ 1
26 | O=C(O)c1ccc(-c2ccc3c(c2)CC[C@H](CNC[C@H](O)COc2ccccc2)O3)cc1NC1CCCCC1 [Example 197] | ≤ 1
27 | CC(C)(C)c1ccc(-c2cc(-c3ccc4c(c3)CC[C@H](CNC[C@H](O)COc3ccccc3)O4)ccc2C(=O)O)cc1 [Example 220] | ≤ 1
28 | CC(C)c1nc(-c2ccc3c(c2)CC[C@H](CNC[C@H](O)COc2ccccc2)O3)sc1C(=O)O [Example 190] | ≤ 1
29 | CCCOc1cc(-c2ccc3c(c2)CC[C@H](CNC[C@H](O)COc2ccccc2)O3)ccc1C(=O)O [Example 208] | ≤ 1
30 | COC(=O)c1cc(-c2ccc3c(c2)CC[C@H](CNC[C@H](O)COc2ccccc2)O3)cs1 [Example 133] | ≤ 1
31 | O=C(O)c1ccc(-c2ccc3c(c2)CC[C@H](CNCC(O)COc2ccccc2-c2ccccc2)O3)cc1 (some centres unmarked) [Example 239] | ≤ 1
32 | COC(=O)c1ccc(-c2ccc3c(c2)CC[C@H](CNC[C@H](O)COc2ccccc2)O3)cc1 [Example 84, Methyl 4-[(2R)-2-({[(2S)-2-hydroxy-3-phenoxypropyl]amino}methyl)-3,4-dihydro-2H-chromen-6-yl]benzoate] | ≤ 1
33 | O=C(O)c1cc(-c2ccc3c(c2)CC[C@H](CNC[C@H](O)COc2ccccc2)O3)cs1 [Example 183] | ≤ 1
34 | O=C(O)c1ccc(-c2ccc3c(c2)CC[C@H](CNC[C@H](O)CSc2ccc(Cl)cc2)O3)cc1 [Example 173] | > 1

Further lines, results first:

Row | EC50 [µM] | Structure (SMILES)
35 | ≤ 1 | CC(C)Oc1cc(-c2ccc3c(c2)CC[C@H](CNC[C@H](O)COc2ccccc2)O3)ccc1C(=O)O [Example 211]
36 | > 1 | CCOC(=O)c1sc(-c2ccc3c(c2)CC[C@H](CNC[C@H](O)COc2ccccc2)O3)nc1-c1ccccc1 [Example 136]
37 | ≤ 1 | COc1cc(-c2ccc3c(c2)CCC(CNC[C@H](O)COc2ccccc2)O3)ccc1C(=O)O (stereo in doubt) [Example 206, 4-[(2S)-2-({[(2S)-2-hydroxy-3-phenoxypropyl]amino}methyl)-3,4-dihydro-2H-chromen-6-yl]-2-methoxybenzoic acid]
38 | > 1 | O=C(O)CCc1ccc2c(c1)CC[C@H](CNC[C@H](O)COc1cccc(Cl)c1)O2 [Example 266]
39 | ≤ 1 | CCN(CC)c1cc(-c2ccc3c(c2)CC[C@H](CNC[C@H](O)COc2ccccc2)O3)ccc1C(=O)O [Example 199]
40 | ≤ 1 | O=C(O)c1ccc(-c2ccc3c(c2)CC[C@H](CNC[C@H](O)COc2ccccc2Cl)O3)cc1 [Example 252]
41 | ≤ 1 | O=C(O)c1ccc(-c2ccc3c(c2)CC[C@H](CNC[C@H](O)CSc2ccccc2F)O3)cc1 [Example 174]
42 | > 1 | O=C(O)c1ccc(-c2ccc3c(c2)CC[C@H](CNC[C@H](O)CSc2ccc(F)cc2)O3)cc1 [Example 176]
43 | ≤ 1 | O=C(O)c1ccc(-c2ccc3c(c2)CC[C@H](CNC[C@H](O)COc2cccc(Cl)c2)O3)cc1 [Example 254]
44 | ≤ 1 | O=C(O)c1ccc(-c2ccc3c(c2)CC[C@H](CNC[C@H](O)COc2ccccc2O)O3)cc1 [Example 164]
45 | ≤ 1 | COC(=O)c1ccc2cc(-c3ccc4c(c3)CC[C@H](CNC[C@H](O)COc3ccccc3)O4)ccc2c1 [Example 103, methyl 6-[(2R)-2-({[(2S)-2-hydroxy-3-phenoxypropyl]amino}methyl)-3,4-dihydro-02H-chromen-6-yl]-2-naphthoate]
46 | ≤ 1 | COCCc1ccc(OC[C@@H](O)CNC[C@H]2CCc3cc(-c4ccc(C(=O)O)cc4)ccc3O2)cc1 [Example 139, 4-{(2R)-2-[({(2S)-2-hydroxy-3-[4-(2-methoxyethyl)phenoxy]propyl}amino)methyl]-3,4-dihydro-2H-chromen-6-yl}benzoic acid]
47 | ≤ 1 | CCCCOc1cc(-c2ccc3c(c2)CC[C@H](CNC[C@H](O)COc2ccccc2)O3)ccc1C(=O)O [Example 212]
48 | > 1 | O=C(O)c1ccc(-c2ccc3c(c2)CC[C@H](CNC[C@H](O)CSc2ccc(C(F)(F)F)cc2)O3)cc1 [Example 181]
49 | ≤ 1 | CCOC(=O)c1nn(C)c(C)c1-c1ccc2c(c1)CC[C@H](CNC[C@H](O)COc1ccccc1)O2 [Example 131]
50 | ≤ 1 | O=C(O)CCc1ccc2c(c1)CC[C@H](CNC[C@H](O)COc1ccccc1)O2 [Example 263, 3-[(2R)-2-({[(2S)-2-Hydroxy-3-phenoxypropyl]amino}methyl)-3,4-dihydro-2H-chromen-6-yl]propanoic acid]
51 | > 1 | Cc1cc(C)c(OCC(O)CNC[C@H]2CCc3cc(-c4ccc(C(=O)O)cc4)ccc3O2)c(C)c1 (some centres unmarked) [Example 222]
52 | > 1 | O=C(NC1CCCCC1)c1cc(-c2ccc3c(c2)CC[C@H](CNC[C@H](O)COc2ccccc2)O3)ccn1 [Example 96]
53 | ≤ 1 | O=C(O)CCc1ccc2c(c1)CC[C@H](CNC[C@H](O)COc1ccccc1F)O2 [Example 265, 3-[(2R)-2-({[(2S)-3-(2-Fluorophenoxy)-2-hydroxypropyl]amino}methyl)-3,4-dihydro-2H-chromen-6-yl]propanoic acid]

Source: patent US6699860B2, “Di-substituted aminomethyl-chroman derivative beta-3 adrenoreceptor agonists” (Bayer Pharmaceuticals Corporation, priority 2000, dated 2004)
